Where “and” joins values, the source holds several entries; their conditions need not be identical. Equal values may be shown once. Read-outs that look alike come from different tables or passages of the source.
What was measured:
Assay type in all cases: biochemical
[1] = molecular target: MtSK (M. tuberculosis shikimate kinase) (Mycobacterium tuberculosis, UniProt P9WPY3); test: Shikimate kinase inhibitor activity assay (pyruvate kinase/lactate dehydrogenase coupled), MtSK; settings: for inhibition mode with respect to shikimate (SKM): ATP fixed at 2.5 mM, shikimate varied; for inhibition mode with respect to ATP: shikimate fixed at 1.6 mM, ATP varied; for inhibitory effect against shikimate kinase (in words): preliminary screening at 50 μM
[2] = molecular target: HpSK (H. pylori shikimate kinase) (Helicobacter pylori, UniProt P56073); test: Shikimate kinase inhibitor activity assay (pyruvate kinase/lactate dehydrogenase coupled), HpSK; settings: for inhibition mode with respect to shikimate (SKM): ATP fixed at 2.5 mM, shikimate varied; for inhibition mode with respect to ATP: shikimate fixed at 1.6 mM, ATP varied; for inhibitory effect against shikimate kinase (in words): preliminary screening at 50 μM
Description: The shikimate kinase activity was determined by coupling the release of ADP from the shikimate kinase-catalyzed reaction to the oxidation of NADH using pyruvate kinase (EC 2.7.1.40) and lactate dehydrogenase (EC 1.1.1.27) as coupling enzymes. Shikimate-dependent oxidation of NADH was monitored by the decrease in A340 (ε=6,200 M^−1 cm^−1). The assay was carried out at 25° C. in a mixture containing 100 mM Tris/HCl/KOH buffer, pH 7.5, 50 mM KCl, 5 mM MgCl2, 1.6 mM shikimic acid, 2.5 mM ATP, 1 mM phosphoenolpyruvate, 0.1 mM NADH, 2.5 units of pyruvate kinase/ml, and 2.7 units of lactate dehydrogenase/ml. All assays were conducted in a 96-well microplate spectrophotometer (FLUOstar OPTIMA, BMG LABTECH). Kinetic parameters were obtained using nonlinear regression fitting to the Michaelis-Menten equation. The apparent Km values for each substrate were determined as follows: for ATP the shikimate concentration ([shikimate]) was maintained at 1.6 mM and the [ATP] varied in the range from 0.001 mM to 2.5 mM; for shikimate the [ATP] was maintained at 2.5 mM and the [shikimate] varied in the range from 0.005 to 1.6 mM. The kinetic data were fit to the appropriate equations using the program GraphPad Prism 4 (Software Inc., USA). The kinetic data for determining the Km values were fit to
using the program GraphPad Prism 4 where v was the initial velocity, Vmax was the maximum velocity, Km was the Michaelis constant and [S] was the substrate (shikimate or ATP) concentration. The IC50 value for HpSK inhibition by inhibitors was determined by fitting data to
where v was the initial velocity, Vmax was the maximum velocity, Vmin was the minimum velocity, [I] was the concentration of compounds and n was the Hill slope.
Using GEMDOCK virtual docking and pharmarcophore model, several compounds were selected to assay inhibitor activity for verifying the inhibiting effect on HpSK and MtSK enzyme. Based on the procedure of enzyme activity assay, the initial velocities of the enzyme activity were determined in the presence of compounds (50 μM) dissolved in dimethylsulfoxide (DMSO). The final DMSO concentration in all assay mixtures was 5% (v/v). The assay buffer contained 100 mM Tris/HCl/KOH (pH 7.5), 1.6 mM shikimic acid, 2.5 mM ATP. The reaction was initiated by the addition of the diluted HpSK and MtSK enzyme (85 nM). After the preliminary screening, several compounds were identified to inhibit HpSK and MtSK enzyme activity. The initial velocities of the enzyme activity were determined in the presence of various concentrations of these compounds to investigate the dose-dependent inhibition effects. IC50 values of these compounds were obtained by fitting the data to a sigmoid dose-response equation of the GraphPad Prism 4. Afterwards, inhibitor modality was determined by measuring the effects of inhibitor concentrations on the enzymatic activity as a function of substrate concentration. In the inhibition experiment where the ATP concentration was fixed at 2.5 mM, shikimate was a varied substrate (0.06, 0.12, 0.24, 0.48, and 0.96 mM) when the concentration of inhibitor was varied from 0 to 50 μM. In parallel, in the inhibition experiment where the shikimate concentration was fixed at 1.6 mM, ATP was a varied substrate (0.06, 0.12, 0.24, 0.48, and 0.96 mM) when the concentration of inhibitor was varied from 0 to 50 μM.

[3] = molecular target: T1, HpDHQS (dehydroquinate synthase of H. pylori) (Helicobacter pylori, UniProt P56081, I144T); test: HpDHQS inhibition assay (thiobarbiturate assay of residual DAHP); settings: 1 μM HpDHQS, 37° C., pH 7.0
T1 construct: His tag (inferred from the pQE30 vector and nickel-ion purification); made in house; host or cells: E. coli JM109
T1 sequence (P56081 1-343 I144T): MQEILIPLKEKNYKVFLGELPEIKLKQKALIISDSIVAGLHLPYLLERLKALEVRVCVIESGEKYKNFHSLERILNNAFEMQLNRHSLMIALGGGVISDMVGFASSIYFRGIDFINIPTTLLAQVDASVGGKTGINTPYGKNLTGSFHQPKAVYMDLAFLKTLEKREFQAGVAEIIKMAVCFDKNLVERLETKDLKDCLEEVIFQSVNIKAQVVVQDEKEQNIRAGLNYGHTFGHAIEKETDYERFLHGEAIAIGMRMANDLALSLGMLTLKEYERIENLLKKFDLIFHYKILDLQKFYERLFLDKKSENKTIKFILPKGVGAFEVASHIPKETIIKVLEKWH
Description: The level of DAHP was determined by a thiobarbiturate assay method. All assays were conducted at 37° C. in a 200-μl solution containing 20 mM Bis-Tris propane buffer (pH 7.0), 0.5 mM DAHP, 0.02 mM cobalt chloride, 0.02 mM NAD^+ and 1 μM HpDHQS. The residual DAHP was oxidized by per-iodate to produce formylpyruvate, which then reacted with thiobarbiturate to yield a pink adduct, and this chromophore was monitored at A549 after extraction into cyclohexanone.
Compounds were prepared to 100 mM in dimethylsulfoxide (DMSO) solutions. A 5% DMSO control was included for each set of measurements. About 1 μM HpDHQS was added to the mixture containing the compound to be tested with the standard assay mixture. The test compounds were also evaluated whether they interfered the thiobarbiturate assay system in the absence of HpDHQS. The initial velocities were plotted against the inhibitor concentrations to obtain the IC50 by using the following equation A[I]=A[0]×{1−([I]/[I]+IC50)]} wherein A[I] was the enzyme activity with inhibitor concentration [I], and A[0] was the enzyme activity without the inhibitor.

[4] = MtSK, with respect to ATP, read-out: αKi, ATP
[5] = MtSK, with respect to shikimate, read-out: αKi, SKM
[6] = with respect to ATP, read-out: αKi, ATP
[7] = with respect to shikimate, read-out: αKi, SKM

HpSK (H. pylori shikimate kinase), sequence (P56073 whole entry): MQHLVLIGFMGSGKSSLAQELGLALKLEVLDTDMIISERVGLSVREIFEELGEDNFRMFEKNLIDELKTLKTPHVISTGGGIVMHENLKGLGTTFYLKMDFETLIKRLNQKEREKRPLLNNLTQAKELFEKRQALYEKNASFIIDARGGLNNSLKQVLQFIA
MtSK (M. tuberculosis shikimate kinase), sequence (P9WPY3 whole entry): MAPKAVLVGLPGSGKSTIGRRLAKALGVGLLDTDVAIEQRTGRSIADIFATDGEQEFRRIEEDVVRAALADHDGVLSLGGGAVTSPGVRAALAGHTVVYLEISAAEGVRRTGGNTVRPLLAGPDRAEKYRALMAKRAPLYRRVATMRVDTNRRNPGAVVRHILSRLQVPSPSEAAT

| Compound | IC50 ([1]; MtSK) | inhibition mode with respect to shikimate (SKM) ([1]; MtSK) | inhibition mode with respect to ATP ([1]; MtSK) | Ki [1, 4] | Ki [1, 5] | IC50 [2] | inhibition mode with respect to shikimate (SKM) [2] | inhibition mode with respect to ATP [2] | Ki [2, 6] | Ki [2, 7] | further results |
| --- | --- | --- | --- | --- | --- | --- | --- | --- | --- | --- | --- |
| 5-((E)-(4-((E)-(2-benzyl-8-hydroxy-6-sulfonatonaphthalen-1-yl)diazenyl)phenyl)diazenyl)-2-hydroxybenzoate [Compound 7] | 2770 nM | Competitive | Competitive | 730 nM | 1040 nM | 6100 nM | Competitive | Competitive | 1970 nM | 2420 nM | – |
| 5-((E)-(4-((E)-(4-((E)-(2,4-diamino-5-methylphenyl)diazenyl)-3-methyl-2-sulfonatophenyl)diazenyl)phenyl)diazenyl)-2-hydroxybenzoate [Compound 6] | 1500 nM | Competitive | Competitive | 320 nM | 660 nM | 4780 nM | Competitive | Competitive | 1050 nM | 1730 nM | – |
| O=C1c2cccc3cc([N+](=O)[O-])cc(c23)C(=O)N1c1ccc(S(=O)(=O)Nc2ccc(C(F)(F)F)cc2)cc1 [Compound 1, 4-(5-nitro-1,3-dioxo-1H-benzo[de]isoquinolin-2(3H)-yl)-N-(4-(trifluoromethyl)phenyl)benzenesulfonamide] | > 50000 nM | – | – | – | – | 79300 nM | – | – | – | – | – |
| O=C(NNC(=O)C1c2ccccc2Oc2ccccc21)c1cccc(F)c1 [Compound 3, N′-(3-fluorobenzoyl)-9H-xanthene-9-carbohydrazide] | > 50000 nM | – | – | – | – | 40200 nM | – | – | – | – | – |
| N=C(NO)c1ccc(Oc2cc(Cl)cc(Cl)c2)c([N+](=O)[O-])c1 [Compound 4, (Z)-4-(3,5-dichlorophenoxy)-N′-hydroxy-3-nitrobenzimidamide] | > 50000 nM | – | – | – | – | 89800 nM | – | – | – | – | – |
| O=C(Nc1ccc2c(O)cc(S(=O)(=O)O)cc2c1)Nc1ccc2c(O)cc(S(=O)(=O)O)cc2c1 [Compound 5, 7,7′-carbonylbis(azanediyl)bis(4-hydroxynaphthalene-2-sulfonate)] | 2760 nM | Noncompetitive | Competitive | 350 nM | 2670 nM | ≤ 10000 nM and 7770 nM | Noncompetitive | Competitive | 1740 nM | 12800 nM | inhibition mode with respect to shikimate (SKM) ([1]; MtSK, listed as NSC45174): noncompetitive; inhibition mode with respect to shikimate (SKM) ([2]; listed as NSC45174): noncompetitive |
| Cc1cc(/N=N/c2ccc(/N=N/c3ccc(/N=N/c4ccc(O)c(C(=O)O)c4)cc3)c(S(=O)(=O)O)c2C)c(N)cc1N [Compound 6, 5-((E)-(4-((E)-(4-((E)-(2,4-diamino-5-methylphenyl)diazenyl)-3-methyl-2-sulfonatophenyl)diazenyl)phenyl)diazenyl)-2-hydroxybenzoate] | ≤ 10000 nM | – | – | – | – | ≤ 10000 nM | – | – | – | – | – |
| O=C(O)c1cc(/N=N/c2ccc(/N=N/c3c(Cc4ccccc4)ccc4cc(S(=O)(=O)O)cc(O)c34)cc2)ccc1O [Compound 7, 5-((E)-(4-((E)-(2-benzyl-8-hydroxy-6-sulfonatonaphthalen-1-yl)diazenyl)phenyl)diazenyl)-2-hydroxybenzoate] | ≤ 10000 nM | – | – | – | – | ≤ 10000 nM | – | – | – | – | – |
| Nc1ccc2c(O)c(/N=N/c3ccc4c(O)cc(S(=O)(=O)O)cc4c3)c(S(=O)(=O)O)cc2c1 [Compound 8, (E)-7-amino-4-hydroxy-3-((5-hydroxy-7-sulfonatonaphthalen-2-yl)diazenyl)naphthalene-2-sulfonate] | 1550 nM | Competitive | Competitive | 240 nM | 610 nM | 4910 nM | Competitive | Competitive | 1850 nM | 1820 nM | inhibition mode with respect to shikimate (SKM) ([1]; MtSK, listed as NSC136535): competitive; inhibition mode with respect to shikimate (SKM) ([2]; listed as NSC136535): competitive |
| N#C/C(=C/c1ccc(O)c(O)c1)C(=O)c1ccc(O)c(O)c1 [Compound 9, (Z)-2-(3,4-dihydroxybenzoyl)-3-(3,4-dihydroxyphenyl)acrylonitrile, reference compound] | – | Noncompetitive | Competitive | – | – | 2300 nM | Noncompetitive | Competitive | 3080 nM | 5350 nM | inhibition mode with respect to shikimate (SKM) ([1]; MtSK, listed as AG538): noncompetitive; inhibitory effect against shikimate kinase (in words) ([1]; MtSK): showed inhibitory results; inhibition mode with respect to shikimate (SKM) ([2]; listed as AG538): noncompetitive; inhibitory effect against shikimate kinase (in words) [2]: showed inhibitory results |
| O=C1Nc2ccc(I)cc2/C1=C/c1cc(Br)c(O)c(Br)c1 [Compound 10, (Z)-3-(3,5-dibromo-4-hydroxybenzylidene)-5-iodoindolin-2-one, reference compound] | – | – | – | – | – | 31400 nM | – | – | – | – | IC50 [1]: 29600 nM; inhibitory effect against shikimate kinase (in words) ([1]; MtSK): showed inhibitory results; inhibitory effect against shikimate kinase (in words) [2]: showed inhibitory results |
| CC1CCc2c(sc(NC(=O)CSc3nc4ccccc4s3)c2C#N)C1 (centres unmarked) [HTS11955, 2-(1,3-benzothiazol-2-ylsulfanyl)-N-(3-cyano-6-methyl-4,5,6,7-tetrahydro-1-benzothiophen-2-yl)acetamide] | – | – | – | – | – | – | – | – | – | – | IC50 [3]: 61000 nM |
| CSc1c(C#N)c(N)nc(SCC(=O)c2cccc([N+](=O)[O-])c2)c1C#N [RH00573, 2-amino-4-methylsulfanyl-6-[2-(3-nitrophenyl)-2-oxoethyl]sulfanylpyridine-3,5-dicarbonitrile] | – | – | – | – | – | – | – | – | – | – | IC50 [3]: 84400 nM |
